{"source": "paper PMC6886798", "about": "“Expression of myeloid Src-family kinases is associated with poor prognosis in AML and influences Flt3-ITD kinase inhibitor acquired resistance” (PLoS ONE, 2019)", "assay_in_all_cases": "KINOMEscan", "type_in_all_cases": "binding", "settings_in_all_cases": "1.0 µM", "key": {"[1]": {"target": "T1, ABL1(M351T)-phosphorylated (Homo sapiens, UniProt P00519, M351T)", "T1 construct": "purchased Eurofins/DiscoverX KINOMEscan scanMAX", "experimental": "(§1) Kinase retention to the immobilized ligand is then measured using quantitative real-time PCR for each kinase-specific DNA barcode."}, "[2]": {"target": "T2, ABL1(T315I)-nonphosphorylated (Homo sapiens, UniProt P00519, T315I)", "T2 construct": "purchased Eurofins/DiscoverX KINOMEscan scanMAX", "experimental": "as §1"}, "ASK2": {"target": "T3, ASK2 (Homo sapiens, UniProt O95382)", "T3 construct": "purchased Eurofins/DiscoverX KINOMEscan scanMAX", "experimental": "as §1"}, "BMPR1B": {"target": "T4, BMPR1B (Homo sapiens, UniProt O00238)", "T4 construct": "purchased Eurofins/DiscoverX KINOMEscan scanMAX", "T4 sequence (O00238 14-502)": "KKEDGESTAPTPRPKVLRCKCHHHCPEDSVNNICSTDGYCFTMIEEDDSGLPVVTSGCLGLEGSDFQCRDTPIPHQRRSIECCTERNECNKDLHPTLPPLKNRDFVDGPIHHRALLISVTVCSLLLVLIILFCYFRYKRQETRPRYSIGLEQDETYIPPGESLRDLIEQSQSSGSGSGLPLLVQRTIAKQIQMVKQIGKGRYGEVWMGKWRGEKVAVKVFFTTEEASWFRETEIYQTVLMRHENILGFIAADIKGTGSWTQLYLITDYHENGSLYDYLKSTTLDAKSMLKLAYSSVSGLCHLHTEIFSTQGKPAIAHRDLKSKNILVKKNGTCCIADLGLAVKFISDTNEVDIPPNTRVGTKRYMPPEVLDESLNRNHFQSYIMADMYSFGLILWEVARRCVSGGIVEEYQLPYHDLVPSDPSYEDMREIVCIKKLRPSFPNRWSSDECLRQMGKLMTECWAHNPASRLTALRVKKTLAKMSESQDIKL", "experimental": "as §1"}, "BRSK1": {"target": "T5, BRSK1 (Homo sapiens, UniProt Q8TDC3)", "T5 construct": "purchased Eurofins/DiscoverX KINOMEscan scanMAX", "experimental": "as §1"}, "CDK4-cyclinD1": {"target": "T6, CDK4-cyclinD1 (Homo sapiens, UniProt P11802)", "T6 construct": "purchased Eurofins/DiscoverX KINOMEscan scanMAX", "experimental": "as §1"}, "EPHA8": {"target": "T7, EPHA8 (Homo sapiens, UniProt P29322)", "T7 construct": "purchased Eurofins/DiscoverX KINOMEscan scanMAX", "T7 sequence (P29322 28-1005)": "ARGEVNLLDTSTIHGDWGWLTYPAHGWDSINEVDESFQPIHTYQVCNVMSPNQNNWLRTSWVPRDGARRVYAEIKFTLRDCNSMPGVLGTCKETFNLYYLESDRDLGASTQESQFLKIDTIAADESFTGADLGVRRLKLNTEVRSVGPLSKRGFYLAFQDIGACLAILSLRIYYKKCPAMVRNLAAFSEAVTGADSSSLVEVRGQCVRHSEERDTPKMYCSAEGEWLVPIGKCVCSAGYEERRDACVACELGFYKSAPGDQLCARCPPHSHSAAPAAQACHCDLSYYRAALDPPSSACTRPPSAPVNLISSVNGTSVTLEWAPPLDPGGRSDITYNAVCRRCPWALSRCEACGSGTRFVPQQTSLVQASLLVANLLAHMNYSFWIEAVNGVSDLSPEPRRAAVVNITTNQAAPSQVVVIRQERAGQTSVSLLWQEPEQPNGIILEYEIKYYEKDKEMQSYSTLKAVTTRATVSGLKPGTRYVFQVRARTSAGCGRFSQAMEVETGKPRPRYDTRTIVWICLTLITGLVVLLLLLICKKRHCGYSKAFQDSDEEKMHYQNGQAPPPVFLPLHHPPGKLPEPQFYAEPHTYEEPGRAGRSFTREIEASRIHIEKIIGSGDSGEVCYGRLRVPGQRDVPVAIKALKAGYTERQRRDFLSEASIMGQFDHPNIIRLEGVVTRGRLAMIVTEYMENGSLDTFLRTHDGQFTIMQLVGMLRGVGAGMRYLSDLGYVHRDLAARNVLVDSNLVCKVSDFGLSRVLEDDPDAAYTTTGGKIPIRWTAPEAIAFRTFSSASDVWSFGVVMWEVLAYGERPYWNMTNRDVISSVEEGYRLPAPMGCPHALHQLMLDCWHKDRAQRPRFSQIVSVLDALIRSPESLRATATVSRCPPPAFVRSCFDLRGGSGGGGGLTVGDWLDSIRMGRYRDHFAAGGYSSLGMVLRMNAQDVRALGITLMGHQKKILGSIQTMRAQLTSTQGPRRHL", "experimental": "as §1"}, "ERK8": {"target": "T8, ERK8 (Homo sapiens, UniProt Q8TD08)", "T8 construct": "purchased Eurofins/DiscoverX KINOMEscan scanMAX", "experimental": "as §1"}, "FLT3": {"target": "T9, FLT3 (Homo sapiens, UniProt P36888)", "T9 construct": "purchased Eurofins/DiscoverX KINOMEscan scanMAX", "experimental": "as §1"}, "FLT3(N841I)": {"target": "T10, FLT3(N841I) (Homo sapiens, UniProt P36888, N841I)", "T10 construct": "purchased Eurofins/DiscoverX KINOMEscan scanMAX", "experimental": "as §1"}, "GSK3A": {"target": "T11, GSK3A (Homo sapiens, UniProt P49840)", "T11 construct": "purchased Eurofins/DiscoverX KINOMEscan scanMAX", "experimental": "as §1"}, "ICK": {"target": "T12, ICK (Homo sapiens, UniProt Q9UPZ9)", "T12 construct": "purchased Eurofins/DiscoverX KINOMEscan scanMAX", "experimental": "as §1"}, "IKK-epsilon": {"target": "T13, IKK-epsilon (Homo sapiens, UniProt Q14164)", "T13 construct": "purchased Eurofins/DiscoverX KINOMEscan scanMAX", "experimental": "as §1"}, "LZK": {"target": "T14, LZK (Homo sapiens, UniProt O43283)", "T14 construct": "purchased Eurofins/DiscoverX KINOMEscan scanMAX", "experimental": "as §1"}, "MAP3K1": {"target": "T15, MAP3K1 (Homo sapiens, UniProt Q13233)", "T15 construct": "purchased Eurofins/DiscoverX KINOMEscan scanMAX", "experimental": "as §1"}, "MAP3K15": {"target": "T16, MAP3K15 (Homo sapiens, UniProt Q6ZN16)", "T16 construct": "purchased Eurofins/DiscoverX KINOMEscan scanMAX", "experimental": "as §1"}, "MAP4K4": {"target": "T17, MAP4K4 (Homo sapiens, UniProt O95819)", "T17 construct": "purchased Eurofins/DiscoverX KINOMEscan scanMAX", "experimental": "as §1"}, "MARK2": {"target": "T18, MARK2 (Homo sapiens, UniProt Q7KZI7)", "T18 construct": "purchased Eurofins/DiscoverX KINOMEscan scanMAX", "experimental": "as §1"}, "MERTK": {"target": "T19, MERTK (Homo sapiens, UniProt Q12866)", "T19 construct": "purchased Eurofins/DiscoverX KINOMEscan scanMAX", "experimental": "as §1"}, "MLCK": {"target": "T20, MLCK (Homo sapiens, UniProt Q32MK0)", "T20 construct": "purchased Eurofins/DiscoverX KINOMEscan scanMAX", "experimental": "as §1"}, "MYO3A": {"target": "T21, MYO3A (Homo sapiens, UniProt Q8NEV4)", "T21 construct": "purchased Eurofins/DiscoverX KINOMEscan scanMAX", "experimental": "as §1"}, "PAK7": {"target": "T22, PAK7 (Homo sapiens, UniProt Q9P286)", "T22 construct": "purchased Eurofins/DiscoverX KINOMEscan scanMAX", "experimental": "as §1"}, "PCTK3": {"target": "T23, PCTK3 (Homo sapiens, UniProt Q07002)", "T23 construct": "purchased Eurofins/DiscoverX KINOMEscan scanMAX", "experimental": "as §1"}, "PHKG1": {"target": "T24, PHKG1 (Homo sapiens, UniProt Q16816)", "T24 construct": "purchased Eurofins/DiscoverX KINOMEscan scanMAX", "experimental": "as §1"}, "PIK3C2B": {"target": "T25, PIK3C2B (Homo sapiens, UniProt O00750)", "T25 construct": "purchased Eurofins/DiscoverX KINOMEscan scanMAX", "experimental": "as §1"}, "PIK3CA(H1047Y)": {"target": "T26, PIK3CA(H1047Y) (Homo sapiens, UniProt P42336, H1047Y)", "T26 construct": "purchased Eurofins/DiscoverX KINOMEscan scanMAX", "T26 sequence (P42336 whole entry H1047Y)": "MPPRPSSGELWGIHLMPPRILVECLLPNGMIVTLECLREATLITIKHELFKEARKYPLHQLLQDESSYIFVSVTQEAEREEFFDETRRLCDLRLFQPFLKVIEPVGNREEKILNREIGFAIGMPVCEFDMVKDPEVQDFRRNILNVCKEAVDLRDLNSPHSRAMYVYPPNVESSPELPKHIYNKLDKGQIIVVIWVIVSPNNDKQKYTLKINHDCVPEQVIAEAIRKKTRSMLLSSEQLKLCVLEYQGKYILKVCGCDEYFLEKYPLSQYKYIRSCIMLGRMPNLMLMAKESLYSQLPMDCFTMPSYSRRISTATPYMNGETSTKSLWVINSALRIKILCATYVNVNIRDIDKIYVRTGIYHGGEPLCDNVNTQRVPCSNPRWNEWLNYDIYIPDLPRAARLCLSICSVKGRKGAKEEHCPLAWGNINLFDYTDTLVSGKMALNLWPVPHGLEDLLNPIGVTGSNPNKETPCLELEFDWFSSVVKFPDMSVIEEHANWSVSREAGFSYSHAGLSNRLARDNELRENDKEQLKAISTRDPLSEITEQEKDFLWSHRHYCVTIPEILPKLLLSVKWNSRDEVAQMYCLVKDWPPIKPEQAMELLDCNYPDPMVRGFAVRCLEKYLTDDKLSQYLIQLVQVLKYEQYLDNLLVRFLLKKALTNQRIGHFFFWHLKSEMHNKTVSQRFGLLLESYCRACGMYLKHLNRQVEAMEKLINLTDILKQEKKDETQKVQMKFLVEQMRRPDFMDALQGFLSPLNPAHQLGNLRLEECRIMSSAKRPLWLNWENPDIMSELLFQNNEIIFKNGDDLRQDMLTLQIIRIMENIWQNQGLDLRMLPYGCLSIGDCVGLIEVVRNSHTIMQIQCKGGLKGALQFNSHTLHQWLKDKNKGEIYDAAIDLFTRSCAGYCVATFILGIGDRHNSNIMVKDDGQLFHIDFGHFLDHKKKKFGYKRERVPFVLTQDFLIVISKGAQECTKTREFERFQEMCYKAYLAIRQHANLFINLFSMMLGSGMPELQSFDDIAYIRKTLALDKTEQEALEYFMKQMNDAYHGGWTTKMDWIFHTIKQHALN", "experimental": "as §1"}, "PIK3CA(I800L)": {"target": "T27, PIK3CA(I800L) (Homo sapiens, UniProt P42336, I800L)", "T27 construct": "purchased Eurofins/DiscoverX KINOMEscan scanMAX", "T27 sequence (P42336 whole entry I800L)": "as the sequence (P42336 whole entry H1047Y) above, with I800L, Y1047H counted along it", "experimental": "as §1"}, "PIK3CA(M1043I)": {"target": "T28, PIK3CA(M1043I) (Homo sapiens, UniProt P42336, M1043I)", "T28 construct": "purchased Eurofins/DiscoverX KINOMEscan scanMAX", "T28 sequence (P42336 whole entry M1043I)": "as the sequence (P42336 whole entry H1047Y) above, with M1043I, Y1047H counted along it", "experimental": "as §1"}, "PRKCD": {"target": "T29, PRKCD (Homo sapiens, UniProt Q05655)", "T29 construct": "purchased Eurofins/DiscoverX KINOMEscan scanMAX", "experimental": "as §1"}, "PRKD2": {"target": "T30, PRKD2 (Homo sapiens, UniProt Q9BZL6)", "T30 construct": "purchased Eurofins/DiscoverX KINOMEscan scanMAX", "experimental": "as §1"}, "ROCK2": {"target": "T31, ROCK2 (Homo sapiens, UniProt O75116)", "T31 construct": "purchased Eurofins/DiscoverX KINOMEscan scanMAX", "experimental": "as §1"}, "ROS1": {"target": "T32, ROS1 (Homo sapiens, UniProt P08922)", "T32 construct": "purchased Eurofins/DiscoverX KINOMEscan scanMAX", "T32 sequence (P08922 28-2347)": "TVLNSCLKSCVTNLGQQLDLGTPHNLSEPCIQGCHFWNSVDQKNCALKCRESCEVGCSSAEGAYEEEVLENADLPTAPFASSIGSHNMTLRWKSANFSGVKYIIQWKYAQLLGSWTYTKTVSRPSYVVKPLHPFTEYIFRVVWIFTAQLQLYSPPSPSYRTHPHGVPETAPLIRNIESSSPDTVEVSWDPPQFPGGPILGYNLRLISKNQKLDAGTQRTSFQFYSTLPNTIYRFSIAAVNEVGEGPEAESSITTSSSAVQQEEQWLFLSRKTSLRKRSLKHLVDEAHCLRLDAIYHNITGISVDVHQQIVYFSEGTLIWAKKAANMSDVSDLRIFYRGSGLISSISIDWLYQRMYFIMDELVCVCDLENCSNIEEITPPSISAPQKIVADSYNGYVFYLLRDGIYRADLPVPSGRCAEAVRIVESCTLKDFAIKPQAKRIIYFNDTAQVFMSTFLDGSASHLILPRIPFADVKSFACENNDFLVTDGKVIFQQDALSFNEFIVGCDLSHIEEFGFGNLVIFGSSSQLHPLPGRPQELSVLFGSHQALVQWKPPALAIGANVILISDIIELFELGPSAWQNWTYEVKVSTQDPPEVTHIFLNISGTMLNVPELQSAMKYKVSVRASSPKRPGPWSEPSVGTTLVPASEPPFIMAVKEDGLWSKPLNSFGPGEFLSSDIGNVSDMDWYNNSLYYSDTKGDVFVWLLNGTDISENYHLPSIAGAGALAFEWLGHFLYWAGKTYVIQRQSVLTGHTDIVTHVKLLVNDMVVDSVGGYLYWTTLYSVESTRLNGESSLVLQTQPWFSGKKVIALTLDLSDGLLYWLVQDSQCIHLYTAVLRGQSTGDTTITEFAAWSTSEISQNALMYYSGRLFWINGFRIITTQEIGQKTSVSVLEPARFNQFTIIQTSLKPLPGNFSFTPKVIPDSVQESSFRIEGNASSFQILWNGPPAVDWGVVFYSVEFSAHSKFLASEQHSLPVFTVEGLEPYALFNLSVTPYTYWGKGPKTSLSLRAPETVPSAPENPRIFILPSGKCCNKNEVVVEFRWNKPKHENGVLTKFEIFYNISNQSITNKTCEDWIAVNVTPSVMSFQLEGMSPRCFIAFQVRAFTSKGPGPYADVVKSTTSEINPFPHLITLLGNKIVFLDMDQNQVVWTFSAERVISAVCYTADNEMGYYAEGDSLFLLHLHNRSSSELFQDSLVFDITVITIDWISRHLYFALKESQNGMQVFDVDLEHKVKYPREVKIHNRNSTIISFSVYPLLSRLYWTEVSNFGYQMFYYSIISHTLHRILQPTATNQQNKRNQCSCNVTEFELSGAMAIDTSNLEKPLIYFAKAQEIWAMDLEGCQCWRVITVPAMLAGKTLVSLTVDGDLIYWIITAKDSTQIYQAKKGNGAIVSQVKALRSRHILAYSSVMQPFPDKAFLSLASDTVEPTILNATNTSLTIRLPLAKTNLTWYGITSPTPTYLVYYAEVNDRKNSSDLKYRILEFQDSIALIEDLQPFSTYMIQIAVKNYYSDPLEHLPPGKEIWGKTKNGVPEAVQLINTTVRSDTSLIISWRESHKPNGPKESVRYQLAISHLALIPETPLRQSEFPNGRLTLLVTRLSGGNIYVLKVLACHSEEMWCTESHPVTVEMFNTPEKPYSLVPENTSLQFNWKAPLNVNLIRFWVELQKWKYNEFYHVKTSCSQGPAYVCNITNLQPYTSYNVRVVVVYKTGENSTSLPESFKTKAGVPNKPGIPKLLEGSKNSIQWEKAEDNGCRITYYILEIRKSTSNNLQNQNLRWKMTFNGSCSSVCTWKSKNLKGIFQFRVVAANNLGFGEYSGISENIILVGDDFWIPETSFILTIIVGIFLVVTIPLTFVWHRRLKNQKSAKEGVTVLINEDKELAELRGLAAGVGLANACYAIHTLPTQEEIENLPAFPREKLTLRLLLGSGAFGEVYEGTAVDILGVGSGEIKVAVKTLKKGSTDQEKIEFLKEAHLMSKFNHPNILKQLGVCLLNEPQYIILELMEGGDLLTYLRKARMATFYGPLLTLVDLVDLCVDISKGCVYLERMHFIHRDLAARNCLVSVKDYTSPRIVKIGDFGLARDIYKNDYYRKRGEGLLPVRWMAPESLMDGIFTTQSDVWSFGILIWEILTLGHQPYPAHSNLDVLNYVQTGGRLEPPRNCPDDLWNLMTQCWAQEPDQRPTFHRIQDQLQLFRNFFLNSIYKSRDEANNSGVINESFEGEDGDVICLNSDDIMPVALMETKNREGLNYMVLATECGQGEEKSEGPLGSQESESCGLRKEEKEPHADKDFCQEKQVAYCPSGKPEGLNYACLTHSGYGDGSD", "experimental": "as §1"}, "STK33": {"target": "T33, STK33 (Homo sapiens, UniProt Q9BYT3)", "T33 construct": "purchased Eurofins/DiscoverX KINOMEscan scanMAX", "experimental": "as §1"}, "TAK1": {"target": "T34, TAK1 (Homo sapiens, UniProt O43318)", "T34 construct": "purchased Eurofins/DiscoverX KINOMEscan scanMAX", "experimental": "as §1"}, "TAOK2": {"target": "T35, TAOK2 (Homo sapiens, UniProt Q9UL54)", "T35 construct": "purchased Eurofins/DiscoverX KINOMEscan scanMAX", "experimental": "as §1"}, "TBK1": {"target": "T36, TBK1 (Homo sapiens, UniProt Q9UHD2)", "T36 construct": "purchased Eurofins/DiscoverX KINOMEscan scanMAX", "experimental": "as §1"}, "TSSK1B": {"target": "T37, TSSK1B (Homo sapiens, UniProt Q9BXA7)", "T37 construct": "DNA tag (qPCR barcode); purchased Eurofins/DiscoverX KINOMEscan scanMAX", "experimental": "as §1"}, "TSSK3": {"target": "T38, TSSK3 (Homo sapiens, UniProt Q96PN8)", "T38 construct": "DNA tag (qPCR barcode); purchased Eurofins/DiscoverX KINOMEscan scanMAX", "experimental": "as §1"}, "TTK": {"target": "T39, TTK (Homo sapiens, UniProt P33981)", "T39 construct": "DNA tag (qPCR barcode); purchased Eurofins/DiscoverX KINOMEscan scanMAX", "experimental": "as §1"}, "YES": {"target": "T40, YES (Homo sapiens, UniProt P07947)", "T40 construct": "purchased Eurofins/DiscoverX (KINOMEscan scanMAX service)", "experimental": "as §1"}, "YSK1": {"target": "T41, YSK1 (Homo sapiens, UniProt O00506)", "T41 construct": "purchased Eurofins/DiscoverX (KINOMEscan scanMAX service)", "experimental": "as §1"}, "ZAP70": {"target": "T42, ZAP70 (Homo sapiens, UniProt P43403)", "T42 construct": "purchased Eurofins/DiscoverX (KINOMEscan scanMAX service)", "experimental": "as §1"}}, "data": [{"molecule": "CN1CCN(C2CCC(n3cc(-c4ccc(Oc5ccccc5)cc4)c4c(N)ncnc43)CC2)CC1", "note": "(stereo not drawn) [A-419259]", "values": [{"measurement": "% Control", "setting": "[1]", "result": 1.6, "unit": "%"}, {"measurement": "% Control", "setting": "[2]", "result": 41, "unit": "%"}, {"measurement": "% Control", "setting": "ASK2", "result": 62, "unit": "%"}, {"measurement": "% Control", "setting": "BMPR1B", "result": 92, "unit": "%"}, {"measurement": "% Control", "setting": "BRSK1", "result": 14, "unit": "%"}, {"measurement": "% Control", "setting": "CDK4-cyclinD1", "result": 27, "unit": "%"}, {"measurement": "% Control", "setting": "EPHA8", "result": 72, "unit": "%"}, {"measurement": "% Control", "setting": "ERK8", "result": 100, "unit": "%"}, {"measurement": "% Control", "setting": "FLT3", "result": 0.65, "unit": "%"}, {"measurement": "% Control", "setting": "FLT3(N841I)", "result": 5.3, "unit": "%"}, {"measurement": "% Control", "setting": "GSK3A", "result": 100, "unit": "%"}, {"measurement": "% Control", "setting": "ICK", "result": 97, "unit": "%"}, {"measurement": "% Control", "setting": "IKK-epsilon", "result": 100, "unit": "%"}, {"measurement": "% Control", "setting": "LZK", "result": 85, "unit": "%"}, {"measurement": "% Control", "setting": "MAP3K1", "result": 92, "unit": "%"}, {"measurement": "% Control", "setting": "MAP3K15", "result": 79, "unit": "%"}, {"measurement": "% Control", "setting": "MAP4K4", "result": 83, "unit": "%"}, {"measurement": "% Control", "setting": "MARK2", "result": 82, "unit": "%"}, {"measurement": "% Control", "setting": "MERTK", "result": 12, "unit": "%"}, {"measurement": "% Control", "setting": "MLCK", "result": 66, "unit": "%"}, {"measurement": "% Control", "setting": "MYO3A", "result": 2.7, "unit": "%"}, {"measurement": "% Control", "setting": "PAK7", "result": 89, "unit": "%"}, {"measurement": "% Control", "setting": "PCTK3", "result": 100, "unit": "%"}, {"measurement": "% Control", "setting": "PHKG1", "result": 99, "unit": "%"}, {"measurement": "% Control", "setting": "PIK3C2B", "result": 10, "unit": "%"}, {"measurement": "% Control", "setting": "PIK3CA(H1047Y)", "result": 99, "unit": "%"}, {"measurement": "% Control", "setting": "PIK3CA(I800L)", "result": 98, "unit": "%"}, {"measurement": "% Control", "setting": "PIK3CA(M1043I)", "result": 100, "unit": "%"}, {"measurement": "% Control", "setting": "PRKCD", "result": 89, "unit": "%"}, {"measurement": "% Control", "setting": "PRKD2", "result": 63, "unit": "%"}, {"measurement": "% Control", "setting": "ROCK2", "result": 62, "unit": "%"}, {"measurement": "% Control", "setting": "ROS1", "result": 100, "unit": "%"}, {"measurement": "% Control", "setting": "STK33", "result": 30, "unit": "%"}, {"measurement": "% Control", "setting": "TAK1", "result": 77, "unit": "%"}, {"measurement": "% Control", "setting": "TAOK2", "result": 85, "unit": "%"}, {"measurement": "% Control", "setting": "TBK1", "result": 100, "unit": "%"}, {"measurement": "% Control", "setting": "TSSK1B", "result": 100, "unit": "%"}, {"measurement": "% Control", "setting": "TSSK3", "result": 95, "unit": "%"}, {"measurement": "% Control", "setting": "TTK", "result": 3.5, "unit": "%"}, {"measurement": "% Control", "setting": "YES", "result": 0, "unit": "%"}, {"measurement": "% Control", "setting": "YSK1", "result": 84, "unit": "%"}, {"measurement": "% Control", "setting": "ZAP70", "result": 100, "unit": "%"}]}]}
